{"source": "patent US20250270170A1", "about": "“2,3-DIMETHOXY-5-METHYL-1,4-BENZOQUINONE ALKYL ALCOHOL DERIVATIVE AND USE THEREOF” (BEIJING ANJIANXI BIO-MEDICAL TECHNOLOGY CO., LTD., priority 2021, published 2025)", "type_in_all_cases": "in vivo, C57BL/6J mice", "key": {"[1]": {"system": "cisplatin-induced acute kidney damage in mice", "assay": "Example 11: renal pathology (HE, PAS) and pathological scoring", "conditions": "cisplatin 10 mg/kg alone (model) or with amifostine 50 mg/kg i.p. half an hour before; trihydrate", "method": "(§1) 42 male C57BL/6J mice (age: 6 to 8 weeks, body weight 18-20 g, certificate number: 11400700238365) were purchased from Si Pei Fu (Beijing) Biotechnology Co., Ltd., and raised in an SPF-grade animal room of the Institute of Materia Medica, Chinese Academy of Medical Sciences, at a temperature of 20 to 25° C., a relative humidity of 40% to 70%, and a cycle of 12 hours of light and 12 hours of dark. The animals had free access to water and food. After 3 days of normal feeding, mice with good physical conditions after the veterinary examination were selected for this assay. Before grouping, a marker was used to mark on the base of the animals' tail. After grouping, each animal was marked with an ear cutout (7 mice in each group).\n(§2) Assay animals: 42 7-week-old male C57 mice were used for animal testing after an adaptive feeding.\n(§3) Group 1: blank control group;\n(§4) The preparation of the R01 formulation administration test solution was the same as that in Example 5: an appropriate amount of the R01 formulation was weighed according to the three dosages set in the assay, respectively, and an appropriate volume of 0.5% CMC-Na aqueous solution was added. The mixture was vortexed and sonicated until mixed evenly, to give the administration test solutions with concentrations of […], respectively, which were ready for use.\n(§5) Animal testing period: 7 days (excluding adaptive feeding), hereinafter referred to as: D1-D7.\n1. […]\nThe body weight of the animals when being grouped for administration in each group was recorded. The body weight and the kidney weight at the end of the assay were also recorded, and the kidney coefficient was calculated. The creatinine and urea nitrogen values in the blood samples sent for testing were recorded. […]"}, "[2]": {"system": "cisplatin-induced acute kidney damage in mice", "assay": "Example 11: kidney weight and kidney coefficient in cisplatin-induced acute kidney damage model", "method": "as §1, §2, §3, §4, §5\n(§6) 1. The first group was a solvent control group: N=7, all mice were males (the same below); • a) 0.5% solution of sodium carboxymethyl cellulose was gavagely administered from D1 to D6 (twice a day for each animal, with an interval of 8 hours between the morning and the afternoon). • b) Physiological saline was intraperitoneally injected in one-time on D4. • c) On D7, blood was collected from the orbit for euthanasia (300 ul of serum was extracted), the left kidney was fixed in formaldehyde, and the right kidney was preserved in liquid nitrogen (WB study may be carried out).\n(§7) 3) Each animal was weighed before euthanasia, and the weight was recorded. Two kidneys were weighed as soon as possible after euthanasia, and the weight was recorded. Then, the two kidneys were quickly fixed or cryopreserved, and the kidney coefficient of the mouse was calculated (kidney weight/mouse weight).\n(§8) The body weight of the animals when being grouped for administration in each group was recorded. The body weight and the kidney weight at the end of the assay were also recorded, and the kidney coefficient was calculated. The creatinine and urea nitrogen values in the blood samples sent for testing were recorded. The kidneys were stained with HE and PAS, and the slides were scanned. A report was issued after the pathological analysis.\n(§9) The assay data were calculated and processed statistically using Microsoft Office Excel 2007 software. Unless otherwise specified, the data were expressed as mean±standard error (Mean±SE), and t-test was used for comparison between two groups."}, "[3]": {"system": "cisplatin-induced acute kidney damage in mice", "assay": "Example 11: serum creatinine (Cre) in cisplatin-induced acute kidney damage model", "method": "as §1, §2, §3, §4, §5, §6\n(§10) 1) The concentrations of urea nitrogen and creatinine in peripheral blood serum were tested.\nas §8, §9"}, "[4]": {"system": "cisplatin-induced acute kidney damage in mice", "assay": "Example 11: serum urea nitrogen (Bun) in cisplatin-induced acute kidney damage model", "method": "as §1, §2, §3, §4, §5, §6, §10, §8, §9"}, "[5]": {"assay": "Example 11: body weight in cisplatin-induced acute kidney damage model", "conditions": "Amifostine group", "method": "as §1, §2, §3, §4, §5, §6, §7, §8, §9"}, "[6]": {"conditions": "group mean, cisplatin model, Amifostine group"}, "[7]": {"conditions": "individual animals No. 1-7, cisplatin model, Amifostine group, trihydrate"}}, "note": "Where “and” joins values, the source holds several entries; their conditions need not be identical. Equal values may be shown once. Entries after “also recorded” stand apart in the source; their conditions may differ.", "data": [{"compound": "NCCCNCCSP(=O)(O)O", "note": "[amifostine, Amifostine trihydrate, reference compound]", "values": [{"measurement": "pathological damage of kidneys", "setting": "[1]", "value": "slight renal tubular damage and blurred renal tubular epithelial edges; also recorded: significantly reduced"}, {"measurement": "Kidney coefficient (kidney weight/body weight), x (mean)", "setting": "[2]; [6]", "value": 0.014}, {"measurement": "Kidney weight after the assay, x (mean)", "setting": "[2]; [6]", "value": 0.224, "unit": "g"}, {"measurement": "Kidney coefficient (kidney weight/body weight)", "setting": "[2]; [7]", "value": "0.014 (3×) and 0.015 (2×) and 0.013 (2×)"}, {"measurement": "Kidney weight after the assay", "setting": "[2]; [7]", "value": "0.223 g and 0.249 g and 0.202 g and 0.227 g and 0.220 g and 0.205 g and 0.241 g"}, {"measurement": "Kidney coefficient (kidney weight/body weight)", "setting": "[2]; with cisplatin 10 mg/kg, amifostine 50 mg/kg i.p., R01 6, 18, 36 mg/kg bid", "value": "equivalent to that of the blank control group"}, {"measurement": "serum creatinine value", "setting": "[3]; cisplatin 10 mg/kg alone (vs blank, P<0.01) or with amifostine 50 mg/kg i.p. / R01 6, 18, 36 mg/kg bid", "value": "equivalent to that of the blank control group"}, {"measurement": "Serum creatinine (Cre) level after the assay, x (mean)", "setting": "[3]; [6]", "value": 16.1, "unit": "mg/dL"}, {"measurement": "Serum creatinine (Cre) level after the assay", "setting": "[3]; [7]", "value": "9 mg/dl and 19 mg/dl and 14 mg/dl and 18 mg/dl (3×) and 17 mg/dl"}, {"measurement": "serum urea nitrogen value", "setting": "[4]; cisplatin 10 mg/kg alone (vs blank, P<0.05) or with amifostine 50 mg/kg i.p. (P<0.01)", "value": "significantly lower than that of the model group"}, {"measurement": "Urea nitrogen (Bun) level after the assay, x (mean)", "setting": "[4]; [6]", "value": 8.1, "unit": "mg/dL"}, {"measurement": "Urea nitrogen (Bun) level after the assay", "setting": "[4]; [7]", "value": "10.92 mg/dL and 8.76 mg/dL and 6.62 mg/dL and 7.23 mg/dL and 7.62 mg/dL and 8.78 mg/dL and 6.47 mg/dL"}, {"measurement": "Body weight, Before x- after x", "setting": "[5]; difference of group means, cisplatin model", "value": 4.1, "unit": "g"}, {"measurement": "Body weight before cisplatin modeling, Before x (mean)", "setting": "[5]; group mean", "value": 20.9, "unit": "g"}, {"measurement": "Body weight after the assay, After x (mean)", "setting": "[5]; group mean, cisplatin model", "value": 16.8, "unit": "g"}, {"measurement": "Body weight before cisplatin modeling", "setting": "[5]; individual animals No. 1-7, trihydrate", "value": "20.2 g and 20.6 g (2×) and 20.4 g and 20.5 g and 21.8 g and 22.4 g"}, {"measurement": "Body weight after the assay", "setting": "[5]; individual animals No. 1-7, cisplatin model, trihydrate", "value": "18 g and 16.7 g and 16.8 g and 17.1 g and 16.3 g and 15.8 g and 17.2 g"}]}]}
